Assay results published in a compilation of properties of binary mixtures (doi:10.1021/acs.jpcb.6b06974).

Assay: xn = mol fraction of the nth substance listed
Settings: 101 kPa

CCCCCC[n+]1ccn(C)c1.O=S(=O)([N-]S(=O)(=O)C(F)(F)F)C(F)(F)F + ClC(Cl)Cl
electrical conductivity (288.5 K, x1 = 0.018): 0.021 S/m
electrical conductivity (288.5 K, x1 = 0.137): 0.302 S/m
electrical conductivity (288.5 K, x1 = 0.297): 0.46 S/m
electrical conductivity (288.5 K, x1 = 0.604): 0.255 S/m
electrical conductivity (288.5 K, x1 = 0.713): 0.211 S/m
electrical conductivity (288.5 K, x1 = 0.848): 0.169 S/m
electrical conductivity (288.5 K, x1 = 0.911): 0.153 S/m
electrical conductivity (288.5 K, x2 = 0.014): 0.137 S/m
electrical conductivity (298.2 K, x1 = 0.034): 0.076 S/m
electrical conductivity (298.2 K, x1 = 0.167): 0.477 S/m
electrical conductivity (298.2 K, x1 = 0.256): 0.582 S/m
electrical conductivity (298.2 K, x1 = 0.379): 0.524 S/m
electrical conductivity (298.2 K, x1 = 0.562): 0.369 S/m
electrical conductivity (298.2 K, x1 = 0.732): 0.295 S/m
electrical conductivity (298.2 K, x1 = 0.87): 0.245 S/m
electrical conductivity (298.2 K, x1 = 0.924): 0.233 S/m
electrical conductivity (298.2 K, x1 = 0.962): 0.221 S/m
electrical conductivity (298.2 K, x2 = 0.008): 0.213 S/m
electrical conductivity (308.2 K, x1 = 0.019): 0.04 S/m
electrical conductivity (308.2 K, x1 = 0.123): 0.501 S/m
electrical conductivity (308.2 K, x1 = 0.214): 0.686 S/m
electrical conductivity (308.2 K, x1 = 0.318): 0.701 S/m
electrical conductivity (308.2 K, x1 = 0.4): 0.652 S/m
electrical conductivity (308.2 K, x1 = 0.585): 0.431 S/m
electrical conductivity (308.2 K, x1 = 0.807): 0.378 S/m
electrical conductivity (308.2 K, x1 = 0.905): 0.327 S/m
electrical conductivity (308.2 K, x1 = 0.949): 0.336 S/m
electrical conductivity (308.2 K, x2 = 0.015): 0.326 S/m
electrical conductivity (318.5 K, x1 = 0.03): 0.072 S/m
electrical conductivity (318.5 K, x1 = 0.2): 0.785 S/m
electrical conductivity (318.5 K, x1 = 0.247): 0.835 S/m
electrical conductivity (318.5 K, x1 = 0.446): 0.788 S/m
electrical conductivity (318.5 K, x1 = 0.684): 0.55 S/m
electrical conductivity (318.5 K, x1 = 0.815): 0.529 S/m
electrical conductivity (318.5 K, x1 = 0.92): 0.479 S/m
